Reference: article PMC13099375 (Nature biomedical engineering, 2025)
Several values for one entry are separate records, joined by “and”; a condition that tells them apart may be missing. Identical values can stand only once. Bridges are numbered along the chain shown (N, C = ends). Where no end group is shown, it is not given here. [ ]: non-standard residue; d: D form. Lys(N3) = [N-]=[N+]=NCCCC[C@H](N)C(=O)O

How the values were obtained:
FMC63^IgG [1] = assay: ELISA of FMC63 IgG binding to plate-bound synthetic mimotopes (Fig 2F, 3F); settings: peptide pre-treated with DTT
FMC63^IgG [2] = assay: Flow cytometry of FMC63 IgG binding to mimotope yeast clones (Fig 2E, 3B, 3D, 3E)
Target sequence in this assay (as listed by the source): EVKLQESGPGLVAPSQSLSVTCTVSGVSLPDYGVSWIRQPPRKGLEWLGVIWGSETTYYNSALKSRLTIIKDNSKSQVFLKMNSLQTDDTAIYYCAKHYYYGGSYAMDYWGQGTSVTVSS
Target sequence in this assay (as listed by the source): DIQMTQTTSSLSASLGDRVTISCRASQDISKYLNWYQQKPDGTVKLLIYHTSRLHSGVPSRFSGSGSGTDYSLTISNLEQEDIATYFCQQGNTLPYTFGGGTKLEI

[3] = Clinical data, pediatric B-ALL: CAR-T expansion by qPCR and B cell aplasia (Fig 1A-D); assay type: in vivo, human; settings: for probability of continued B-cell aplasia: at 6 months
[4] = Clinical data, adult B-ALL: peak CAR-T expansion by qPCR (EDF2A); assay type: in vivo, human; settings: adult relapsed/refractory ALL
[5] = Clinical data, adult B-cell lymphoma: peak CAR-T expansion by qPCR (EDF2B); assay type: in vivo, human; settings: relapsed/refractory B-NHL
[6] = system: primary mouse B cells (mouse CD19); assay: FMC63 IgG binding to primary mouse B cells by flow cytometry (EDF7D)
FMC63-mCAR-T cells [7] = assay: CTV dilution of FMC63-mCAR-T cells in LNs after amph-mimotope vaccination (Fig 5D); assay type: in vivo, C57BL/6 mice; settings: 10 nmol amph-peptide + 25μg CDG, 48 hours after vaccination, n=3
FMC63-mCAR-T cells [8] = assay: IFN-γ ELISA, FMC63-mCAR-T co-cultured with amph-mimotope-labeled K562 cells (Fig 5B); assay type: cell-based, mouse
FMC63^scFv [9] = assay: FMC63 scFv binding to K562 cells labeled with amph-mimotopes (Fig 3J); settings: read-out: Kd^scFv (apparent); K562 labeled with 500 nM amph-mimotope, fluorescent FMC63^scFv, flow cytometry
Target sequence in this assay (as listed by the source): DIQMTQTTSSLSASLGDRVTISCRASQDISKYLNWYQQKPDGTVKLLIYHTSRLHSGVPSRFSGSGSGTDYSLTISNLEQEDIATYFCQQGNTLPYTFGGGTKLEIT

CD19 CAR-T cells = assay: IFN-γ ELISA, human CD19 CAR-T co-cultured with amph-mimotope-labeled K562 cells (Fig 2H); assay type: cell-based; settings: 6 hr
EGFRvIII-CAR-T cells = assay: IFN-γ ELISA, control EGFRvIII-CAR-T co-cultured with amph-labeled K562 cells (Fig 2I); assay type: cell-based
FMC63^scFv [10] = assay: Retention of prebound biotin-FMC63 scFv on yeast clones under competition with FMC63 IgG (Fig 3I); assay type: binding; settings: pre-stained with 50nM Biotin-FMC63^scFv, then 1μM FMC63^IgG
[11] = system: FMC63^scFv binding to CD19^+ NALM6 cells; assay: FMC63 scFv staining of NALM6 cells after pre-incubation with mimotope (Fig 4E); design: species or system human; settings: scFv pre-blocked with mimotope
[12] = system: FMC63^IgG binding to CD19^+ NALM6 cells; assay: FMC63 IgG staining of NALM6 cells in the presence of mimotope (Fig 4E); design: species or system human
CD19-CAR Jurkat T cells = assay: CD69 expression on mimotope-pre-incubated CD19-CAR Jurkat T cells co-cultured with NALM6 (Fig 4F); assay type: cell-based, human; settings: 1:1 E:T, 16 hours

Question: For RHCPWNCSLL (disulfide) [P1], which “FMC63^IgG binding to DTT-treated peptide” value (FMC63^IgG [1]) is on record?
Answer: completely ablated

Question: And the “binding of yeast clone at 20 nM biotinylated FMC63^IgG” value (FMC63^IgG [2]; flow cytometry)?
Answer: no detectable binding

Question: What about the “FMC63^IgG binding to yeast clone under mild reductive conditions” value (FMC63^IgG [2]; yeast treated with 0.1mM, 1mM DTT, 500 nM biotin-FMC63^IgG) of the same substance?
Answer: eliminated FMC63^IgG binding

Question: Which “median time to peak CAR-T expansion” value ([3]; after infusion, both cohorts (high ≥40%, n=40; low <40%, n=90), qPCR) does the source give for tisagenlecleucel here?
Answer: 10 days

Question: What about the “probability of continued B-cell aplasia” value ([3]; high tumor burden patients, 95% CI 55–95) of the same substance?
Answer: 72%

Question: And the “probability of continued B-cell aplasia” value ([3]; low tumor burden patients, 95% CI 57–78)?
Answer: 67%

Question: What about the peak of expansion ([4]; high tumor burden (n=23)) of the same substance?
Answer: 77,109 CAR19 copies/μg of DNA

Question: What about the peak of expansion ([4]; low tumor burden (n=6)) of the same substance?
Answer: 25,064 CAR19 copies/μg of DNA

Question: And the CAR-T19 expansion ([5]; high disease burden (n=7))?
Answer: 35,857 CAR19 copies/μg of DNA

Question: What about the CAR-T19 expansion ([5]; low tumor burden (n=30)) of the same substance?
Answer: 18,718 CAR19 copies/μg of DNA

Question: For “FMC63 IgG: recombinant FMC63 (anti-human CD19) expressed as a full-length IgG”, which “binding to WT B cells expressing mouse CD19 (in words)” value [6] is on record?
Answer: minimal binding

Question: Which “CAR-T cell proliferation (CTV dilution) in LNs (in words)” value (FMC63-mCAR-T cells [7]) does the source give for “amph-F12: amphiphile (DSPE-PEG2k) conjugate of F12 ({DSPE‑PEG2k‑DBCO-azido lysine}-RICPWNCKEL; disulfide 3-7 (inferred))” here?
Answer: limited proliferation

Question: For “amph-mimotopeF12 ({DSPE‑PEG2k‑DBCO}-[Lys(N3)]RICPWNCKEL; disulfide 4-8 (inferred))”, which “IFN-γ secretion, FMC63-mCAR-T with amph-labelled K562 (Fig 5B)” value (shortened to “IFN-γ secretion, FMC63-mCAR-T”) (FMC63-mCAR-T cells [8]; replicate 1) is on record?
Answer: 739.091

Question: And the “IFN-γ secretion, FMC63-mCAR-T” value (FMC63-mCAR-T cells [8]; replicate 2)?
Answer: 671.636

Question: What about the “IFN-γ secretion, FMC63-mCAR-T” value (FMC63-mCAR-T cells [8]; replicate 3) of the same substance?
Answer: 771.636

Question: With “amph-P1: P1 with N-terminal azide conjugated to DSPE-PEG2k-DBCO ({DSPE‑PEG2k‑DBCO}-[Lys(N3)]RHCPWNCSLL; not fully specified; cysteine pairing not given here)” as the substance, how does the Kd (FMC63^scFv [9]) read?
Answer: > 1000 nM

Question: And the “IFN-γ by ELISA” value (CD19 CAR-T cells; CD19^− K562 labeled with 100 nM amph-P1, CD19 CAR-T 5:1 E:T, triplicate samples)?
Answer: 79.6185 and 80.063 and 79.9889

Question: What about the “IFN-γ secretion from CD19 CAR-T cells (in words)” value (CD19 CAR-T cells; K562 labeled with 100 nM amph-P1, 5:1 E:T) of the same substance?
Answer: effectively triggered IFN-γ secretion from CD19 CAR-T cells but to a much lesser extent than NALM6 cells

Question: And the “stimulation of control EGFRvIII CAR-T cells (in words)” value (EGFRvIII-CAR-T cells; K562 labeled with 100 nM amph-ligand, 5:1 E:T, 6 hours, IFN-γ ELISA)?
Answer: failed to stimulate

Question: And the “IFN-γ secretion, EGFRvIII-CAR-T with amph-labelled K562 (Fig 2I)” value (“IFN-γ secretion, EGFRvIII-CAR-T” for short) (EGFRvIII-CAR-T cells; replicate 1)?
Answer: 128

Question: What about the “IFN-γ secretion, EGFRvIII-CAR-T” value (EGFRvIII-CAR-T cells; replicate 2) of the same substance?
Answer: 153

Question: What about the “IFN-γ secretion, EGFRvIII-CAR-T” value (EGFRvIII-CAR-T cells; replicate 3) of the same substance?
Answer: 104

Question: What about the “CAR-T cell proliferation (CTV dilution) in LNs (in words)” value (FMC63-mCAR-T cells [7]) of the same substance?
Answer: no CAR-T cell proliferation

Question: Which results are given for “PRKHSGRICPWNCKELDNPPFIFGNR (disulfide) [F12-A1]”?
Answer: time FMC63^scFv remained bound on yeast surface in the presence of excess soluble FMC63^IgG (FMC63^scFv [10]): over 24 hours; mimotope concentration at which FMC63^scFv binding to NALM6 cells is compromised / abolished [11]: greater than 1 μM; mimotope concentration at which FMC63^IgG binding to CD19 is abolished [12]: > 10 µM; CD69 induction on FMC63 CAR Jurkat cells stimulated with NALM6 after pre-blocking with mimotope (CD19-CAR Jurkat T cells): not affected
